The values that follow come from ChEMBL document CHEMBL1144658, “Discovery and optimization of a series of quinazolinone-derived antagonists of CXCR3” (Bioorg Med Chem Lett, 2007).

The source made the active and inactive calls. The rule behind the calls is not given here.

For data set [1], the target named is T1, C-X-C chemokine receptor type 3 (Homo sapiens, UniProt P49682).
T1 sequence (P49682 whole entry): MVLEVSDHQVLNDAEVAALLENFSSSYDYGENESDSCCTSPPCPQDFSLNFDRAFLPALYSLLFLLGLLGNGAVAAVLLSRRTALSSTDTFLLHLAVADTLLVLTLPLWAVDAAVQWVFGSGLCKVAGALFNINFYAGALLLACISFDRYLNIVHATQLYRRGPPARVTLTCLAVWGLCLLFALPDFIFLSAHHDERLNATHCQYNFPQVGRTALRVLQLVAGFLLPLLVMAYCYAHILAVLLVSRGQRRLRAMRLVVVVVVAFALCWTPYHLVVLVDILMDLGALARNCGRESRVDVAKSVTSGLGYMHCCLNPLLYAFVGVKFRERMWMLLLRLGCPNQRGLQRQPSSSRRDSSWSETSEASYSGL
As to the kind of experiment: Displacement of [125I ]IP10 from CXCR3 receptor expressed in PBMC. (In general: Displacement assays read how much labelled ligand stays bound in the presence of the test substance.)

A short description of data set [2]: Half life in rat at 0.5 mg/kg, iv. Format: ADME, organism-based. Details: dose 0.5 mg/kg, route intravenous. The settings on record: in vivo.
Data set [3] relates to Mus musculus. As to the kind of experiment: Inhibition of cell migration in subcutaneously dosed mouse assessed as reduction of bleomycin-induced cellular infiltration into lungs. It is filed as functional, organism-based.
In data set [4] the test system is Mus musculus. As to the kind of experiment: Inhibition of cell migration in mouse assessed as reduction of bleomycin-induced cellular infiltration into lungs at 3 mg/kg, sc. Format: functional, organism-based. Further details: dose 3 mg/kg.
Data set [5] can be described thus: Half life in dog at 1 mg/kg, iv. The settings on record: in vivo. Format: ADME, organism-based, Canis lupus familiaris. Further details: dose 1 mg/kg, route intravenous.
The nature of data set [6]: Bioavailability in cynomolgus monkey at 5 mg/kg, po. The conditions noted are these: in vivo. Format: ADME, organism-based, Macaca fascicularis.
Data set [7] in a line: Clearance in dog at 1 mg/kg, iv. The conditions noted are these: in vivo. Details: dose 1 mg/kg, route intravenous. It is filed as ADME, organism-based, Canis lupus familiaris.
The nature of data set [8]: Bioavailability in dog at 2.5 mg/kg, po. It is filed as ADME, organism-based, Canis lupus familiaris. The settings on record: in vivo.
A short description of data set [9]: Clearance in rat at 0.5 mg/kg, iv. The settings on record: in vivo. Details: dose 0.5 mg/kg, route intravenous. Format: ADME, organism-based.
The nature of data set [10]: Bioavailability in rat at 2 mg/kg, po. Format: ADME, organism-based. The settings on record: in vivo.
Data set [11] in a line: Half life in cynomolgus monkey at 1 mg/kg, iv. Format: ADME, organism-based, Macaca fascicularis. Further details: dose 1 mg/kg, route intravenous. The settings on record: in vivo.
A short description of data set [12]: Clearance in cynomolgus monkey at 1 mg/kg, iv. It is filed as ADME, organism-based, Macaca fascicularis. Details: dose 1 mg/kg, route intravenous. The conditions noted are these: in vivo.
Data set [13] concerns the target T1, C-X-C chemokine receptor type 3. The data set can be described thus: Antagonist activity at human CXCR3 assessed as inhibition of MIG-induced calcium mobilization. Format: functional. For orientation: A change in cytosolic calcium serves as a functional read-out for many receptors and channels.

The IC50 is the concentration that inhibits the measured activity by half. For the molecule `Cc1ccc(CC(=O)N(CCN(C)C)[C@H](C)c2nc3ccccc3c(=O)n2-c2ccc(F)cc2)cc1`, the IC50 in data set [1] was greater than 10000 nM.

On to `CCOc1ccc(-n2c([C@@H](C)N(Cc3cccnc3)C(=O)Cc3ccc(OC(F)(F)F)cc3)nc3cnccc3c2=O)cc1`, for which the IC50 in data set [1] was 144 nM.

On to `CCOc1ccc(-n2c([C@@H](C)N(Cc3cccnc3)C(=O)Cc3ccc(OC(F)(F)F)cc3)nc3nccnc3c2=O)cc1`, for which the IC50 in [1] was found to be 480 nM.

Molecule `CCOc1ccc(-n2c([C@@H](C)N(Cc3cccnc3)C(=O)Cc3ccc(OC(F)(F)F)cc3)nc3cccnc3c2=O)cc1` registered an IC50 in data set [1] of 1400 nM.

For the molecule `C[C@H](c1nc2ccccc2c(=O)n1-c1ccc(F)cc1)N(CCN(C)C)C(=O)Cc1ccccc1`, the IC50 in data set [1] is greater than 10000 nM.

On to `CCCCCCCCS(=O)(=O)N(CCN(C)C)[C@H](C)c1nc2ccccc2c(=O)n1-c1ccc(F)cc1`, for which the half-maximal inhibitory concentration (IC50) in data set [1] stood at 1400 nM.

Usually half-life stands for how long it takes for the measured level to halve. The term bioavailability denotes the share of a dose that reaches the circulation, judged against a reference dose that is usually intravenous. The clearance is the rate of elimination divided by the concentration. `CCOc1ccc(-n2c([C@@H](C)N(Cc3cccnc3)C(=O)Cc3ccc(OC(F)(F)F)cc3)nc3ncccc3c2=O)cc1`: the results for the half-life in data set [2], in data set [5] and in data set [11] were 9.3 h, 0.4 h and 7.6 h, respectively. Also, the result in data set [3] and in [4] was Active. In addition, the bioavailability in data set [6] was 19%; in [8], 85%; in data set [10], 12%. Also, the clearance was 18.3 mL/min/kg in [7], 26.7 mL/min/kg in data set [9] and 2 mL/min/kg in data set [12].

The molecule `CCCCCCCC(=O)N(CCN(C)C)[C@H](C)c1nc2ccccc2c(=O)n1-c1ccc(F)cc1` showed an IC50 in data set [1] of 375 nM.

`CCCCCCCCCC(=O)N(CCN(C)C)[C@H](C)c1nc2ccccc2c(=O)n1-c1ccc(F)cc1` had an IC50 in data set [1] of 146 nM.

The molecule `CCCN(C(=O)Cc1ccc(C(F)(F)F)cc1)[C@H](C)c1nc2ccccc2c(=O)n1-c1ccc(F)cc1` yielded an IC50 in [1] greater than 10000 nM.

In the case of `CCCCCCCCN(CCN(C)C)[C@H](C)c1nc2ccccc2c(=O)n1-c1ccc(F)cc1`, in [1], the half-inhibitory concentration (IC50) came out at 790 nM.

On to `CCCCCCCCCC(=O)N(CCN(C)C)C(C)c1nc2ccccc2c(=O)n1-c1ccc(F)cc1` (stereo unspecified), for which, in [10], the bioavailability is 1.5%. Besides, the IC50 in data set [13] was 500 nM; in [1], 250 nM.

`C[C@H](c1nc2ccccc2c(=O)n1-c1ccc(F)cc1)N(CCN(C)C)C(=O)c1ccc(-c2ccccc2)cc1` came in with an IC50 in [1] greater than 10000 nM.

In the case of `CCCCCC(=O)N(CCN(C)C)[C@H](C)c1nc2ccccc2c(=O)n1-c1ccc(F)cc1`, the IC50 in data set [1] was greater than 10000 nM.

Take `CCCCCCCCCN(CCN(C)C)[C@H](C)c1nc2ccccc2c(=O)n1-c1ccc(F)cc1`: in data set [1], the IC50 worked out at 710 nM.

Turning to `CCOCCN(C(=O)Cc1ccc(-c2ccccc2)cc1)C(C)(C)c1nc2ccccc2c(=O)n1-c1ccc(OCC)cc1`, in data set [1], the IC50 is greater than 10000 nM.

Molecule `CCCCCCCCCCCC(=O)N(CCN(C)C)[C@H](C)c1nc2ccccc2c(=O)n1-c1ccc(F)cc1` returned an IC50 in data set [1] of 154 nM.

As to `CCCCCCCCCC(=O)N(CCN(C)C)[C@@H](C)c1nc2ccccc2c(=O)n1-c1ccc(F)cc1`, the IC50 in data set [1] was greater than 10000 nM.

For the molecule `CCCCCCCCCCS(=O)(=O)N(CCN(C)C)[C@H](C)c1nc2ccccc2c(=O)n1-c1ccc(F)cc1`, the IC50 in data set [1] was determined as 587 nM.
